Patent publication US12391737B2, “Soluble NPY2 receptor agonists” (Boehringer Ingelheim International GmbH, priority 2020, dated 2025)
*1 amine or outer side, *2 acyl side, *3 side chain or, on linkers, in order; H or OH if unused. Where a SMILES comes first, the peptide text is derived from it. Side-chain parts run from the residue outwards. The star is where a group is joined. C18 diacid = O=C(O)CCCCCCCCCCCCCCCCC(=O)*; γGlu = O=C(O)[C@H](CCC(=O)[*:2])N[*:1]; Isovaleryl = CC(C)CC(=O)*; Ahx = NCCCCCC(=O)O

Assays:
[1] = molecular target: T1, Human Neuropeptide Y2 Receptor (Homo sapiens, UniProt P49146); experiment: Radioligand binding competition assay (RLB); settings: Table 3, 125I-PYY(1-36) competition; read-out: Ki
T1 construct: purchased CHEMICON HTS066M
T1 sequence (P49146 1-381): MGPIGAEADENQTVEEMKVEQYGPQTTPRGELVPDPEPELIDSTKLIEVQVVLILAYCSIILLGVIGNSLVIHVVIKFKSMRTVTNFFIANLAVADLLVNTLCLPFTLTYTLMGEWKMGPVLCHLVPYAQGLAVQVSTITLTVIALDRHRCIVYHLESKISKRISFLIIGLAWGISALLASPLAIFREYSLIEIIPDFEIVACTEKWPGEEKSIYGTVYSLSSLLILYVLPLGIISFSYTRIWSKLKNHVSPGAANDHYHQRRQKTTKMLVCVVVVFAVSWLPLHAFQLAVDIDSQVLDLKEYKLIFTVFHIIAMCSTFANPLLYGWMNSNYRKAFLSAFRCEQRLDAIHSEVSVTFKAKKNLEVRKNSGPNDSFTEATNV
In short: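 Peptides were serially diluted from 1 mM DMSO stocks and competed for radioligand binding to receptor membranes (0.5 μg/well) over 2 h at room temperature, pH 7.4 HEPES buffer. Bound radioactivity on filters was counted by scintillation, and IC50 was derived by nonlinear regression.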

[2] = molecular target: T2, human NPY5 receptor (hY5R) (Homo sapiens, UniProt Q15761); experiment: HTRF cAMP Gi assay, hY5R
T2 sequence (Q15761 1-445): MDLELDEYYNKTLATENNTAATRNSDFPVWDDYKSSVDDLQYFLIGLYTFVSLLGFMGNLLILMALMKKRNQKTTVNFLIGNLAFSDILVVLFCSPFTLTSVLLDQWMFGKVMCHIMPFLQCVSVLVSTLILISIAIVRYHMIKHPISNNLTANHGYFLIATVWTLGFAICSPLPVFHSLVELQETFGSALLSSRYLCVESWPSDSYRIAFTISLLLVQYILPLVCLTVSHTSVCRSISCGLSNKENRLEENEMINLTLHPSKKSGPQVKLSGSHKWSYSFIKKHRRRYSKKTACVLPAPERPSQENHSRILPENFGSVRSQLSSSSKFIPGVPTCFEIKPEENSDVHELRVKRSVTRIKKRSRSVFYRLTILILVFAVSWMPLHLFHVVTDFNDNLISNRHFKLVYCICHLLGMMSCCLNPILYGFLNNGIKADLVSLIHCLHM

[3] = Solubility determination; settings: for Sol6: pH 6; for Sol7: pH 7
In short: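 Sample: TFA-salt peptide at 10 mg/ml target in 0.1 M Na diphosphate, pH 6.4 or 7.0, shaken 2 h RT, filtered, diluted to 1 mg/ml.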

| Ki [1] | EC50 [2] | Sol6 [3] | Sol7 [3] | Structure (SMILES) |
| --- | --- | --- | --- | --- |
| 0.81 nM | > 5000 nM | 10.0 mg/mL | >10.0 mg/mL | CC[C@H](C)[C@H](NC(=O)[C@H](CCC(=O)O)NC(=O)[C@H](CCC(=O)O)NC(=O)[C@@H]1CCCN1C(=O)[C@H](CO)NC(=O)[C@H](C)NC(=O)[C@H](CC(=O)O)NC(=O)[C@H](CCC(=O)O)NC(=O)[C@@H]1CCCN1C(=O)[C@@H]1CCCN1C(=O)[C@H](CCCCNC(=O)CCCCCNC(=O)CC[C@H](NC(=O)CCCCCCCCCCCCCCCCC(=O)O)C(=O)O)NC(=O)[C@H](CCC(=O)O)NC(=O)[C@@H]1CCCN1C(=O)[C@H](C)NC(=O)CC(C)C)C(=O)N[C@@H](CCC(N)=O)C(=O)N[C@@H](CCCNC(=N)N)C(=O)N[C@@H](Cc1ccc(O)cc1)C(=O)N[C@@H](Cc1ccc(O)cc1)C(=O)N[C@H](C(=O)N[C@@H](CO)C(=O)N[C@@H](CC(C)C)C(=O)N[C@@H](CCCNC(=N)N)C(=O)N[C@@H](Cc1c[nH]cn1)C(=O)N[C@@H](Cc1ccc(O)cc1)C(=O)N[C@@H](Cc1ccc(O)cc1)C(=O)N[C@@H](CC(N)=O)C(=O)N[C@@H](Cc1c[nH]c2ccccc12)C(=O)N[C@@H](CC(C)C)C(=O)N[C@H](C(=O)N[C@@H](CCCNC(=N)N)C(=O)N[C@@H](CCC(N)=O)C(=O)N[C@@H](CCCNC(=N)N)C(=O)N[C@@H](Cc1ccc(O)cc1)C(N)=O)[C@@H](C)O)C(C)C [Compound 172, N{alpha-4}-(3-methylbutanoyl)-N{epsilon-7}-(6-[(4S)-4-carboxy-4-(17-carboxyheptadecanamido)butanamido]hexanoyl)-[4A,7K,9P,17I,18Q,22V,28Y,30W,31L]-hPYY(4-36)] |
| 6.17 nM | – | >10.0 mg/mL | >10.0 mg/mL | CC[C@H](C)[C@H](NC(=O)[C@H](CCC(=O)O)NC(=O)[C@H](CCC(=O)O)NC(=O)[C@@H]1CCCN1C(=O)[C@H](CCCCNC(=O)CCCCCNC(=O)CC[C@H](NC(=O)CCCCCCCCCCCCCCCCC(=O)O)C(=O)O)NC(=O)[C@H](CCC(=O)O)NC(=O)[C@@H]1CCCN1C(=O)[C@H](C)NC(=O)CC(C)C)C(=O)N[C@@H](C)C(=O)N[C@H](C(=O)N1CCC[C@H]1C(=O)N[C@@H](CCC(=O)O)C(=O)N[C@@H](CCC(=O)O)C(=O)N[C@@H](CC(C)C)C(=O)N[C@@H](CCC(N)=O)C(=O)N[C@@H](CCCNC(=N)N)C(=O)N[C@@H](Cc1ccc(O)cc1)C(=O)N[C@@H](Cc1ccc(O)cc1)C(=O)N[C@H](C(=O)N[C@@H](CO)C(=O)N[C@@H](CC(C)C)C(=O)N[C@@H](CCCNC(=N)N)C(=O)N[C@@H](Cc1c[nH]cn1)C(=O)N[C@@H](Cc1ccc(O)cc1)C(=O)N[C@@H](Cc1ccc(O)cc1)C(=O)N[C@@H](CC(N)=O)C(=O)N[C@@H](Cc1c[nH]c2ccccc12)C(=O)N[C@@H](CC(C)C)C(=O)N[C@H](C(=O)N[C@@H](CCCNC(=N)N)C(=O)N[C@@H](CCC(N)=O)C(=O)N[C@@H](CCCNC(=N)N)C(=O)N[C@@H](Cc1ccc(O)cc1)C(N)=O)[C@@H](C)O)C(C)C)[C@@H](C)O [Compound 45, N{alpha-4}-(3-methylbutanoyl)-N{epsilon-7}-(6-[(4S)-4-carboxy-4-(17-carboxyheptadecanamido)butanamido]hexanoyl)-[4A,7K,9E,11I,13T,18Q,22V,28Y,30W,31L]-hPYY(4-36)] |

More lines, now with the values behind:

| Structure (SMILES) | Ki [1] | EC50 [2] | Sol6 [3] | Sol7 [3] |
| --- | --- | --- | --- | --- |
| CC(C)CC(=O)N[C@@H](C)C(=O)N1CCC[C@H]1C(=O)N[C@@H](CCC(=O)O)C(=O)N[C@@H](CCCCNC(=O)CCCCCNC(=O)CC[C@H](NC(=O)CCCCCCCCCCCCCCCCC(=O)O)C(=O)O)C(=O)N1CCC[C@H]1C(=O)N1CCC[C@H]1C(=O)N[C@@H](C)C(=O)N[C@@H](CC(=O)O)C(=O)N[C@@H](C)C(=O)N[C@H](C(=O)N1CCC[C@H]1C(=O)N[C@@H](CCC(=O)O)C(=O)N[C@@H](CCC(=O)O)C(=O)N[C@@H](CC(C)C)C(=O)N[C@@H](CCC(N)=O)C(=O)N[C@@H](CCCNC(=N)N)C(=O)N[C@@H](Cc1ccc(O)cc1)C(=O)N[C@@H](Cc1ccc(O)cc1)C(=O)N[C@H](C(=O)N[C@@H](CO)C(=O)N[C@@H](CC(C)C)C(=O)N[C@@H](CCCNC(=N)N)C(=O)N[C@@H](Cc1c[nH]cn1)C(=O)N[C@@H](Cc1ccc(O)cc1)C(=O)N[C@@H](Cc1ccc(O)cc1)C(=O)N[C@@H](CC(N)=O)C(=O)N[C@@H](Cc1c[nH]c2ccccc12)C(=O)N[C@@H](CC(C)C)C(=O)N[C@H](C(=O)N[C@@H](CCCNC(=N)N)C(=O)N[C@@H](CCC(N)=O)C(=O)N[C@@H](CCCNC(=N)N)C(=O)N[C@@H](Cc1ccc(O)cc1)C(N)=O)[C@@H](C)O)C(C)C)[C@@H](C)O [Compound 30, N{alpha-4}-(3-methylbutanoyl)-N{epsilon-7}-(6-[(4S)-4-carboxy-4-(17-carboxyheptadecanamido)butanamido]hexanoyl)[4A,7K,9P,10A,13T,18Q,22V,28Y,30W,31L]-hPYY(4-36)] (Isovaleryl-APEK([Ahx-γGlu-C18 diacid])PPADATPEELQRYYVSLRHYYNWLTRQRY-NH2) | 0.3 nM | – | 0.1 mg/mL | 9.4 mg/mL |
| CC(C)CC(=O)N[C@@H](C)C(=O)N1CCC[C@H]1C(=O)N[C@@H](CCC(=O)O)C(=O)N[C@@H](CCCCNC(=O)CCCCCNC(=O)CC[C@H](NC(=O)CCCCCCCCCCCCCCCCC(=O)O)C(=O)O)C(=O)N1CCC[C@H]1C(=O)N[C@@H](CCC(=O)O)C(=O)N[C@@H](CCC(=O)O)C(=O)N[C@@H](CC(=O)O)C(=O)N[C@@H](C)C(=O)N[C@@H](CO)C(=O)N[C@@H](CCC(=O)O)C(=O)N[C@@H](C)C(=O)N[C@@H](CCC(=O)O)C(=O)N[C@@H](CC(C)C)C(=O)N[C@@H](CCC(N)=O)C(=O)N[C@@H](CCCNC(=N)N)C(=O)N[C@@H](Cc1ccc(O)cc1)C(=O)N[C@@H](Cc1ccc(O)cc1)C(=O)N[C@H](C(=O)N[C@@H](CO)C(=O)N[C@@H](CC(C)C)C(=O)N[C@@H](CCCNC(=N)N)C(=O)N[C@@H](Cc1c[nH]cn1)C(=O)N[C@@H](Cc1ccc(O)cc1)C(=O)N[C@@H](Cc1ccc(O)cc1)C(=O)N[C@@H](CC(N)=O)C(=O)N[C@@H](Cc1c[nH]c2ccccc12)C(=O)N[C@@H](CC(C)C)C(=O)N[C@H](C(=O)N[C@@H](CCCNC(=N)N)C(=O)N[C@@H](CCC(N)=O)C(=O)N[C@@H](CCCNC(=N)N)C(=O)N[C@@H](Cc1ccc(O)cc1)C(N)=O)[C@@H](C)O)C(C)C [Compound 80, N{alpha-4}-(3-methylbutanoyl)-N{epsilon-7}-(6-[(4S)-4-carboxy-4-(17-carboxyheptadecanamido)butanamido]hexanoyl)-[4A,7K,9E,14E,15A,18Q,22V,28Y,30W,31L]-hPYY(4-36)] | 4.62 nM | – | 8.1 mg/mL | 8.2 mg/mL |
| CC(C)CC(=O)N[C@@H](C)C(=O)N1CCC[C@H]1C(=O)N[C@@H](CCC(=O)O)C(=O)N[C@@H](CCCCNC(=O)CCCCCNC(=O)CC[C@H](NC(=O)CCCCCCCCCCCCCCCCC(=O)O)C(=O)O)C(=O)N1CCC[C@H]1C(=O)N[C@@H](CCC(=O)O)C(=O)N[C@@H](CCC(=O)O)C(=O)N[C@@H](CC(=O)O)C(=O)N[C@@H](C)C(=O)N[C@H](C(=O)N1CCC[C@H]1C(=O)N[C@@H](CCC(=O)O)C(=O)N[C@@H](CCC(=O)O)C(=O)N[C@@H](CC(C)C)C(=O)N[C@@H](CCC(N)=O)C(=O)N[C@@H](CCCNC(=N)N)C(=O)N[C@@H](Cc1ccc(O)cc1)C(=O)N[C@@H](Cc1ccc(O)cc1)C(=O)N[C@H](C(=O)N[C@@H](CO)C(=O)N[C@@H](CC(C)C)C(=O)N[C@@H](CCCNC(=N)N)C(=O)N[C@@H](Cc1c[nH]cn1)C(=O)N[C@@H](Cc1ccc(O)cc1)C(=O)N[C@@H](Cc1ccc(O)cc1)C(=O)N[C@@H](CC(N)=O)C(=O)N[C@@H](Cc1c[nH]c2ccccc12)C(=O)N[C@@H](CC(C)C)C(=O)N[C@H](C(=O)N[C@@H](CCCNC(=N)N)C(=O)N[C@@H](CCC(N)=O)C(=O)N[C@@H](CCCNC(=N)N)C(=O)N[C@@H](Cc1ccc(O)cc1)C(N)=O)[C@@H](C)O)C(C)C)[C@@H](C)O [Compound 173, N{alpha-4}-(3-methylbutanoyl)-N{epsilon-7}-(6-[(4S)-4-carboxy-4-(17-carboxyheptadecanamido)butanamido]hexanoyl)-[4A,7K,9E,13T,18Q,22V,28Y,30W,31L]-hPYY(4-36)] | 4.07 nM | – | 9.2 mg/mL | 9.6 mg/mL |
